Results: patent US20250214993A1, “AROMATIC RING COMPOUND AND USE THEREOF” (SHANGHAI SHIJIANG BIOTECHNOLOGY CO., LTD, priority 2022, published 2025)

Test system: Con-NCI-H82 cell
Assay: Cell viability (Promega CellTiter-Glo, intracellular ATP), IC50 on Con-NCI-H82 cell
Assay type: cell-based
Conditions: Homo sapiens; normal untreated NCI-H82 cell (control)
Description: (§1) The expression of NNMT protein in NCI-H82 cell was overexpressed by inserting the NNMT gene into NCI-H82 cell using a viral vector, and the NNMT protein-overexpressing NCI-H82 cell (ov-NNMT NCI-H82 cell) was obtained. The normal and untreated NCI-H82 cell (Con-NCI-H82 cell) was used as control. The expressing content of NNMT protein in the ov-NNMT NCI-H82 cell and Con-NCI-H82 cell was detected using Western Blot assay (as shown in FIG. 1), it could be seen from FIG. 1 that the NNMT protein was overexpressed in the ov-NNMT NCI-H82 cell compared with the expression level of NNMT protein in the Con-NCI-H82 cell.
(§2) The cell viability was detected using the Promega CellTiter-Glo kit which reflected cell viability by measuring intracellular ATP content. The Con-NCI-H82 cell and ov-NNMT NCI-H82 cell was cultured in 10% fetal bovine serum-containing RPMI1640 medium (+P/S).

Structure (SMILES) | IC50
Cn1cc(Cc2ccccc2)c2cc[n+](C3CCc4ccc(OC(F)(F)F)cc4C3=O)cc21 (stereo not shown) [AB27339] | 0.341 µM
Cc1ccc(C(=O)C[n+]2ccc3c(Cc4ccccc4)cn(C)c3c2)cc1 [AB27341] | 3.59 µM
Cc1ccc(C(=O)C[n+]2ccc3c(Cc4ccccc4)cn(C)c3c2C)cc1 [AB27343] | 2.04 µM
O=C1c2cc(F)ccc2CCC1n1ccc2c[n+](Cc3ccccc3)ccc21 (stereo not shown) [AB27353] | 0.019 µM
CC(c1ccccc1)[n+]1ccc2c(ccn2C2CCc3ccc(F)cc3C2=O)c1 (stereo not shown) [AB27354] | 0.013 µM
Cc1cc2c[n+](Cc3ccccc3)ccc2n1CC(=O)c1ccc(C(F)(F)F)cc1 [AB27357] | 0.074 µM
Cc1cc2c[n+](Cc3ccccc3)ccc2n1CC(=O)c1ccc(OC(F)(F)F)cc1 [AB27358] | 0.083 µM
Cc1cn(C2CCc3ccc(F)cc3C2=O)c2cc[n+](Cc3ccccc3)cc12 (stereo not shown) [AB27460] | 0.034 µM
Cc1cn(CC(=O)c2ccc(OC(F)(F)F)cc2)c2cc[n+](Cc3ccccc3)cc12 [AB27461] | 1.98 µM
Cc1cn(C2CCc3ccc(C(F)(F)F)cc3C2=O)c2cc[n+](Cc3ccccc3)cc12 (stereo not shown) [AB27464] | 0.175 µM
Cc1cn(C2CCc3ccc(OC(F)(F)F)cc3C2=O)c2cc[n+](Cc3ccccc3)cc12 (stereo not shown) [AB27465] | 0.16 µM
Cc1cn(C2CCc3ccc(C(F)(F)F)cc3C2=O)c2cc[n+](C(C)c3ccccc3)cc12 (stereo not shown) [AB27468] | 0.571 µM
Cc1cn(C2CCc3ccc(OC(F)(F)F)cc3C2=O)c2cc[n+](C(C)c3ccccc3)cc12 (stereo not shown) [AB27469] | 0.427 µM
Cc1cc2c[n+](Cc3ccccc3)ccc2n1C1CCc2ccc(F)cc2C1=O (stereo not shown) [AB27473] | 0.081 µM
O=C1c2cc(F)ccc2CCC1[n+]1ccc2cn(Cc3ccccc3)cc2c1 (stereo not shown) [AB27477] | 0.164 µM
Cc1cn(CC(=O)c2cccc(F)c2)c2cc[n+](Cc3ccccc3)cc12 [AB27478] | 0.023 µM
Cc1cn(CC(=O)c2cccc(F)c2)c2cc[n+](C(C)c3ccccc3)cc12 (stereo not shown) [AB27479] | 0.258 µM
CC(c1ccccc1)n1cc2cc[n+](C3CCc4ccc(F)cc4C3=O)cc2c1 (stereo not shown) [AB27480] | 0.181 µM
Cc1ccc(C(=O)C[n+]2cc3c(cc2Cl)c(Cc2ccccc2)cn3C)cc1 [AB27482] | 3.42 µM
Cc1c(Cl)c2c[n+](Cc3ccccc3)ccc2n1CC(=O)c1cccc(C(F)(F)F)c1 [AB27484] | 1.19 µM
Cc1c(Cl)c2c[n+](Cc3ccccc3)ccc2n1C1CCc2ccc(Cl)cc2C1=O (stereo not shown) [AB27485] | 0.504 µM
O=C(Cn1c(Br)cc2c[n+](Cc3ccccc3)ccc21)c1cccc(C(F)(F)F)c1 [AB27490] | 0.019 µM
Cc1c(C)n(CC(=O)c2cccc(C(F)(F)F)c2)c2cc[n+](Cc3ccccc3)cc12 [AB27493] | 0.281 µM
O=C(Cn1ncc2c[n+](Cc3ccccc3)ccc21)c1cccc(C(F)(F)F)c1 [AB27499] | 0.921 µM
O=C(Cn1cnc2c[n+](Cc3ccccc3)ccc21)c1cccc(OC(F)(F)F)c1 [AB31702] | 5.46 µM
O=C(Cn1cnc2c[n+](Cc3ccccc3)ccc21)c1cccc(C(F)(F)F)c1 [AB31703] | 2.15 µM
O=C(Cn1ncc2c[n+](Cc3ccccc3)ccc21)c1ccc(C(F)(F)F)cc1 [AB31705] | 5.37 µM
Cc1ccc2c(c1)C(=O)C(n1ncc3c[n+](Cc4ccccc4)ccc31)CC2 (stereo not shown) [AB31776] | 0.146 µM
CC(c1ccccc1)[n+]1ccc2c(cnn2C2CCc3ccc(Cl)cc3C2=O)c1 (stereo not shown) [AB31806] | 0.257 µM

Test system: ov-NNMT NCI-H82 cell
Assay: Cell viability (Promega CellTiter-Glo, intracellular ATP), IC50 on NNMT-overexpressing NCI-H82 cell
Assay type: cell-based
Conditions: Homo sapiens; NCI-H82 cell overexpressing NNMT protein
Description: as §1, §2

Structure (SMILES) | IC50
Cc1ccc(C(=O)C[n+]2ccc3c(Cc4ccccc4)cn(C)c3c2)cc1 [AB27341] | 10.5 µM
Cc1ccc(C(=O)C[n+]2ccc3c(Cc4ccccc4)cn(C)c3c2C)cc1 [AB27343] | 5.87 µM
Cc1cc2c[n+](Cc3ccccc3)ccc2n1CC(=O)c1ccc(C(F)(F)F)cc1 [AB27357] | 1.22 µM
Cc1cc2c[n+](Cc3ccccc3)ccc2n1CC(=O)c1ccc(OC(F)(F)F)cc1 [AB27358] | 1.09 µM
Cc1cn(CC(=O)c2ccc(OC(F)(F)F)cc2)c2cc[n+](Cc3ccccc3)cc12 [AB27461] | 9.35 µM
Cc1cn(CC(=O)c2cccc(F)c2)c2cc[n+](Cc3ccccc3)cc12 [AB27478] | 0.283 µM
Cc1ccc(C(=O)C[n+]2cc3c(cc2Cl)c(Cc2ccccc2)cn3C)cc1 [AB27482] | 9.57 µM
Cc1c(Cl)c2c[n+](Cc3ccccc3)ccc2n1CC(=O)c1cccc(C(F)(F)F)c1 [AB27484] | 8.03 µM
O=C(Cn1c(Br)cc2c[n+](Cc3ccccc3)ccc21)c1cccc(C(F)(F)F)c1 [AB27490] | 0.319 µM
Cc1c(C)n(CC(=O)c2cccc(C(F)(F)F)c2)c2cc[n+](Cc3ccccc3)cc12 [AB27493] | 3.45 µM
O=C(Cn1cnc2c[n+](Cc3ccccc3)ccc21)c1cccc(OC(F)(F)F)c1 [AB31702] | 17.5 µM
O=C(Cn1cnc2c[n+](Cc3ccccc3)ccc21)c1cccc(C(F)(F)F)c1 [AB31703] | 12.3 µM

The next lines start with the values.

IC50 | Structure (SMILES)
2.9 µM | Cn1cc(Cc2ccccc2)c2cc[n+](C3CCc4ccc(OC(F)(F)F)cc4C3=O)cc21 (stereo not shown) [AB27339]
0.332 µM | O=C1c2cc(F)ccc2CCC1n1ccc2c[n+](Cc3ccccc3)ccc21 (stereo not shown) [AB27353]
0.222 µM | CC(c1ccccc1)[n+]1ccc2c(ccn2C2CCc3ccc(F)cc3C2=O)c1 (stereo not shown) [AB27354]
0.438 µM | Cc1cn(C2CCc3ccc(F)cc3C2=O)c2cc[n+](Cc3ccccc3)cc12 (stereo not shown) [AB27460]
1.35 µM | Cc1cn(C2CCc3ccc(C(F)(F)F)cc3C2=O)c2cc[n+](Cc3ccccc3)cc12 (stereo not shown) [AB27464]
1.03 µM | Cc1cn(C2CCc3ccc(OC(F)(F)F)cc3C2=O)c2cc[n+](Cc3ccccc3)cc12 (stereo not shown) [AB27465]
6.03 µM | Cc1cn(C2CCc3ccc(C(F)(F)F)cc3C2=O)c2cc[n+](C(C)c3ccccc3)cc12 (stereo not shown) [AB27468]
5.43 µM | Cc1cn(C2CCc3ccc(OC(F)(F)F)cc3C2=O)c2cc[n+](C(C)c3ccccc3)cc12 (stereo not shown) [AB27469]
1.21 µM | Cc1cc2c[n+](Cc3ccccc3)ccc2n1C1CCc2ccc(F)cc2C1=O (stereo not shown) [AB27473]
1.98 µM | O=C1c2cc(F)ccc2CCC1[n+]1ccc2cn(Cc3ccccc3)cc2c1 (stereo not shown) [AB27477]
2.05 µM | Cc1cn(CC(=O)c2cccc(F)c2)c2cc[n+](C(C)c3ccccc3)cc12 (stereo not shown) [AB27479]
2.33 µM | CC(c1ccccc1)n1cc2cc[n+](C3CCc4ccc(F)cc4C3=O)cc2c1 (stereo not shown) [AB27480]
7.1 µM | Cc1c(Cl)c2c[n+](Cc3ccccc3)ccc2n1C1CCc2ccc(Cl)cc2C1=O (stereo not shown) [AB27485]
6.84 µM | O=C(Cn1ncc2c[n+](Cc3ccccc3)ccc21)c1cccc(C(F)(F)F)c1 [AB27499]
19 µM | O=C(Cn1ncc2c[n+](Cc3ccccc3)ccc21)c1ccc(C(F)(F)F)cc1 [AB31705]
2.55 µM | Cc1ccc2c(c1)C(=O)C(n1ncc3c[n+](Cc4ccccc4)ccc31)CC2 (stereo not shown) [AB31776]
2.96 µM | CC(c1ccccc1)[n+]1ccc2c(cnn2C2CCc3ccc(Cl)cc3C2=O)c1 (stereo not shown) [AB31806]
